Where “and” joins values, the source holds several entries; their conditions need not be identical. Equal entries are not always repeated.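 Cultured in 96-well plates, cells were exposed to test compound for 48 hours across five concentrations. GI50 is the concentration that inhibits growth by half. TGI denotes the concentration required for complete inhibition of growth.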

For one test, the system named is SR leukemia. The experiment in a line: NCI anticancer screen, dose series, 48 h.
On to `CCN(CC)CCCCNc1c2ccccc2[n+](C)c2c1[nH]c1ccccc12`, for which the GI50 is 0.373 µM and the TGI was found to be 42.2 µM.
Consider `COc1ccc(C(=O)c2cc(OC)c(OC)c(OC)c2)cc1OC(=O)CCl`, for which the GI50 is below 0.01 µM and the TGI is above 100 µM.
The corresponding values for `CN[C@@H](C)C(=O)N[C@H](C(=O)N1CCC[C@H]1C(=O)Nc1snnc1-c1ccccc1)C1CCCCC1` are 20.7 µM and above 69.7 µM.
Take `c1ccc2[nH]c(-c3ccc(-c4nccc5c4[nH]c4ccccc45)cc3)nc2c1`: the GI50 is 2.21 µM and the TGI turned out to be 6.36 µM.
In turn, `O=C(O)CNC(=O)c1ccc(-c2ccccc2)cc1` showed a TGI above 100 µM.
In the case of `COc1cnc2c(c1)C(=O)c1c-2n(CCCn2ccnc2)c(=O)c2cc(F)ccc12`, the GI50 is below 0.01 µM and the TGI was 0.76 µM.
The corresponding values for `COc1ccc2cc(C(=O)/C=C/c3ccc(Cl)cc3Cl)ccc2c1` are 3.67 µM and 17.3 µM.
The compound `CC(=O)OCC1OC(n2cnc(C(N)=S)c2N)C(OC(C)=O)C1OC(C)=O` (stereo not given) displayed a TGI above 100 µM.

The subject of a further test is UACC-257 melanoma. The experiment in a line: NCI anticancer screen, dose series, 48 h.
With `COc1ccc(-c2cn(-c3cc(OC)c(OC)c(OC)c3)c(SCc3ccccc3)n2)cc1OC`, the GI50 is above 100 µM and the TGI is above 100 µM.
Regarding `COc1c(C)c2c(c(O)c1C/C=C(\C)CCC(=O)O)C(=O)OC2`, the GI50 is 0.434 µM and the TGI is above 100 µM.
With `Cc1cc(O)c(C(C)C)cc1S(=O)(=O)O` (tested in a mixture with another compound), the GI50 was 0.963 µM.
With `COc1cc(C[C@H]2c3cc(OC)c(OC)cc3CCN2C)c(Oc2cc3c(cc2OC)-c2c(OC)c(OC)cc4c2[C@H](C3)N(C)CC4)cc1OC`, the GI50 is 1.8 µM; the TGI is 8.76 µM and 3.37 µM.
Compound `COC(=O)C1(C)CCC(c2ccc(C)cc2)=C(CC(=O)O)C1` (stereo not given) yielded a TGI above 100 µM.
Regarding `CCN(CC)CCCC(C)Nc1ccnc2cc(Oc3ccccc3)ccc12` (stereo not given), the GI50 is 1.95 µM and 2.09 µM; the TGI was 3.59 µM and 3.94 µM.
Turning to `C=C1CCC2C3(C)COC(c4ccc(N(C)C)cc4)OC3CCC2(C)C1C/C=C1/C(=O)OCC1O` (stereo not given), the GI50 was 13.1 µM and the TGI amounted to 26.8 µM.
In the case of `COc1cc(OC(=O)c2ccccc2)cc2c1C(=O)C=CC2=O`, the TGI came to 31.6 µM.
For `CC/C=C1/C(=O)C=C[C@@H]1C/C=C\CCCC(=O)OC`, the GI50 is 2.51 µM and the TGI is 7.1 µM.
With `CCN(CC)CCCCNc1c2ccccc2[n+](C)c2c1[nH]c1ccccc12`, the GI50 was 0.84 µM and the TGI stood at 2.4 µM.
The corresponding values for `COc1ccc(C(=O)c2cc(OC)c(OC)c(OC)c2)cc1OC(=O)CCl` are above 100 µM and above 100 µM.
The corresponding values for `CN[C@@H](C)C(=O)N[C@H](C(=O)N1CCC[C@H]1C(=O)Nc1snnc1-c1ccccc1)C1CCCCC1` are 0.405 µM and 25.5 µM.
The corresponding values for `c1ccc2[nH]c(-c3ccc(-c4nccc5c4[nH]c4ccccc45)cc3)nc2c1` are 1.83 µM and 3.5 µM.
In turn, `O=C(O)CNC(=O)c1ccc(-c2ccccc2)cc1` showed a TGI above 100 µM.
On to `COc1cnc2c(c1)C(=O)c1c-2n(CCCn2ccnc2)c(=O)c2cc(F)ccc12`, for which the GI50 was 0.102 µM and the TGI is 0.493 µM.
The corresponding values for `COc1ccc2cc(C(=O)/C=C/c3ccc(Cl)cc3Cl)ccc2c1` are 20 µM and 55 µM.
For `CC(=O)OCC1OC(n2cnc(C(N)=S)c2N)C(OC(C)=O)C1OC(C)=O` (stereo not given), the TGI was above 100 µM.

For a further test, the system named is UACC-62 melanoma. Put plainly: NCI anticancer screen, dose series, 48 h.
Turning to `COc1ccc(-c2cn(-c3cc(OC)c(OC)c(OC)c3)c(SCc3ccccc3)n2)cc1OC`, the GI50 was above 100 µM and the TGI is above 100 µM.
On to `COc1c(C)c2c(c(O)c1C/C=C(\C)CCC(=O)O)C(=O)OC2`, for which the GI50 was 0.444 µM and the TGI is above 100 µM.
With `Cc1cc(O)c(C(C)C)cc1S(=O)(=O)O` (tested in a mixture with another compound), the GI50 is 0.566 µM.
As to `COc1cc(C[C@H]2c3cc(OC)c(OC)cc3CCN2C)c(Oc2cc3c(cc2OC)-c2c(OC)c(OC)cc4c2[C@H](C3)N(C)CC4)cc1OC`, the GI50 was 19 µM; the TGI is 13.4 µM and 34.2 µM.
On to `COC(=O)C1(C)CCC(c2ccc(C)cc2)=C(CC(=O)O)C1` (stereo not given), for which the TGI is above 100 µM.
Regarding `CCN(CC)CCCC(C)Nc1ccnc2cc(Oc3ccccc3)ccc12` (stereo not given), the GI50 is 4.16 µM and 3.24 µM; the TGI is 11.2 µM and 12.3 µM.
For the compound `C=C1CCC2C3(C)COC(c4ccc(N(C)C)cc4)OC3CCC2(C)C1C/C=C1/C(=O)OCC1O` (stereo not given), the GI50 is 4.26 µM and the TGI worked out at 16.9 µM.
Regarding `COc1cc(OC(=O)c2ccccc2)cc2c1C(=O)C=CC2=O`, the TGI was 28.5 µM.
As to `CC/C=C1/C(=O)C=C[C@@H]1C/C=C\CCCC(=O)OC`, the GI50 is 1.97 µM and the TGI was determined as 4.6 µM.
The corresponding values for `CCN(CC)CCCCNc1c2ccccc2[n+](C)c2c1[nH]c1ccccc12` are 0.0868 µM and 0.26 µM.
The corresponding values for `COc1ccc(C(=O)c2cc(OC)c(OC)c(OC)c2)cc1OC(=O)CCl` are 0.565 µM and above 100 µM.
The corresponding values for `CN[C@@H](C)C(=O)N[C@H](C(=O)N1CCC[C@H]1C(=O)Nc1snnc1-c1ccccc1)C1CCCCC1` are 16.2 µM and 34.2 µM.
Turning to `c1ccc2[nH]c(-c3ccc(-c4nccc5c4[nH]c4ccccc45)cc3)nc2c1`, the GI50 was 1.6 µM and the TGI amounted to 3.49 µM.
For the compound `O=C(O)CNC(=O)c1ccc(-c2ccccc2)cc1`, the TGI was above 100 µM.
Take `COc1ccc2cc(C(=O)/C=C/c3ccc(Cl)cc3Cl)ccc2c1`: the GI50 was 12 µM and the TGI was determined as 86.5 µM.
In turn, `CC(=O)OCC1OC(n2cnc(C(N)=S)c2N)C(OC(C)=O)C1OC(C)=O` (stereo not given) registered a TGI above 100 µM.

The record behind these values is PubChem BioAssay (NCI).
